Assay results from article PMC11413682 (Acta Pharmaceutica Sinica. B, 2024).
Where two headings read alike, the source gives them in different places. No end group written: not given here.

Molecular target: T1, CUL2^ZYG11B (residues 490–728) (Homo sapiens, UniProt Q9C0D3)
T1 construct: PCR was used to amplify CUL2^ZYG11B (residues 490–728); 6×His-SUMO (TEV-cleavable) (N, cleaved yes); made in house; host or cells: E. coli
Assay: ITC binding of ORF10 NTE synthetic peptides to CUL2^ZYG11B

[1] = figure panels, […], repeated 3 times, read-out: Kd

T1 sequence (Q9C0D3 490-728): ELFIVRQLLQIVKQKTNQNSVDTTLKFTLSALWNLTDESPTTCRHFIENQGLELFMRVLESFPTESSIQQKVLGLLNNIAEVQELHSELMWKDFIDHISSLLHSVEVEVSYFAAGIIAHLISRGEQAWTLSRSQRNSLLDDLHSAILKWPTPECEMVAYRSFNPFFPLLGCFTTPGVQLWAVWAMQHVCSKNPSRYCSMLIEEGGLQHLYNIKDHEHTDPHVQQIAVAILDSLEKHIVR

Substance: AYINV [SARS-2 ORF10 N5-G1A]
- Kd: 12.4 µM

Substance: GFINV [SARS-2 ORF10 N5-Y2F]
- Kd [1]: 4.73 µM

Substance: GYANV [SARS-2 ORF10 N5-I3A]
- Kd [1]: 5.61 µM

Substance: GYFNV [SARS-2 ORF10 N5-I3F]
- Kd [1]: 0.87 µM

Substance: GYIAV [SARS-2 ORF10 N5-N4A]
- Kd [1]: 0.59 µM

Substance: PYINV [SARS-2 ORF10 N5-G1P, altered peptide derived from SARS-CoV-2 ORF10 N5, G1P]
- binding to CUL2^ZYG11B (in words) (ITC): abolished
